# Values quoted from earlier work, collected in PubChem BioAssay AID1259409 (Chemical Carcinogenesis Research Information System (CCRIS), 2018).
# Tested on: rodent chemically induced tumor inhibition, incidence and multiplicity
# Test: CCRIS tumor inhibitor studies
# Conditions: Carcinogen: NITROSODIETHYLAMINE, 55-18-5, Dose [Inhibitor]: 0, Route [Inhibitor]: ORAL, Species: MOUSE, Strain/Sex: B6C3F1/MALE, Dose [Carcinogen]: 5 MG/ML IN TRICAPRYLIN ONCE AT 5 WK OF AGE, Promoter: NONE USED
compound,measurement,setting,value
O.O.O.O.O.[Cd+2].[Cd+2].[Cl-].[Cl-].[Cl-].[Cl-],"tumour outcome (control, treated, inhibition, significance)","1000 PPM IN DRINKING WATER BEGINNING 2 WK POST CARCINOGEN DOSE AND CONTINUING FOR DURATION OF STUDY (STUDY DURATION:, Target Tissue: Type of Lesion: LIVER: TUMOR","22/25 (88%), 2/25 (8%), 91%, p<0.05"
same,"tumour outcome (control, treated, inhibition, significance)","1000 PPM IN DRINKING WATER BEGINNING 2 WK POST CARCINOGEN DOSE AND CONTINUING FOR DURATION OF STUDY (STUDY DURATION:, Target Tissue: Type of Lesion: LUNG: TUMOR","100%, 94%, 6%, not significant"
same,"tumour outcome (control, treated, inhibition, significance)","1000 PPM IN DRINKING WATER BEGINNING 4 WK POST CARCINOGEN DOSE AND CONTINUING FOR DURATION OF STUDY (STUDY DURATION:, Target Tissue: Type of Lesion: LIVER: TUMOR","22/25 (88%), 1/25 (4%), 95%, p<0.05"
same,"tumour outcome (control, treated, inhibition, significance)","1000 PPM IN DRINKING WATER BEGINNING 4 WK POST CARCINOGEN DOSE AND CONTINUING FOR DURATION OF STUDY (STUDY DURATION:, Target Tissue: Type of Lesion: LUNG: TUMOR","100%, 94%, 6%, not significant"
same,"tumour outcome (control, treated, inhibition, significance)","1000 PPM IN DRINKING WATER BEGINNING 8 WK POST CARCINOGEN DOSE AND CONTINUING FOR DURATION OF STUDY (STUDY DURATION:, Target Tissue: Type of Lesion: LIVER: TUMOR","22/25 (88%), 1/25 (4%), 95%, p<0.05"
same,"tumour outcome (control, treated, inhibition, significance)","1000 PPM IN DRINKING WATER BEGINNING 8 WK POST CARCINOGEN DOSE AND CONTINUING FOR DURATION OF STUDY (STUDY DURATION:, Target Tissue: Type of Lesion: LUNG: TUMOR","100%, 89%, 11%, not significant"
same,"tumour outcome (control, treated, inhibition, significance)","1000 PPM IN DRINKING WATER BEGINNING 16 WK POST CARCINOGEN DOSE AND CONTINUING FOR DURATION OF STUDY (STUDY DURATION:, Target Tissue: Type of Lesion: LIVER: TUMOR","22/25 (88%), 2/25 (8%), 91%, p<0.05"
same,"tumour outcome (control, treated, inhibition, significance)","1000 PPM IN DRINKING WATER BEGINNING 16 WK POST CARCINOGEN DOSE AND CONTINUING FOR DURATION OF STUDY (STUDY DURATION:, Target Tissue: Type of Lesion: LUNG: TUMOR","100%, 72%, 28%, p<0.05"
same,"tumour outcome (control, treated, inhibition, significance)","1000 PPM IN DRINKING WATER BEGINNING 32 WK POST CARCINOGEN DOSE AND CONTINUING FOR DURATION OF STUDY (STUDY DURATION:, Target Tissue: Type of Lesion: LIVER: TUMOR","22/25 (88%), 6/24 (25%), 72%, p<0.05"
same,"tumour outcome (control, treated, inhibition, significance)","1000 PPM IN DRINKING WATER BEGINNING 32 WK POST CARCINOGEN DOSE AND CONTINUING FOR DURATION OF STUDY (STUDY DURATION:, Target Tissue: Type of Lesion: LUNG: TUMOR","100%, 96%, 4%, not significant"
